This is an account of results in PubChem BioAssay (NCI).

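Protocol summary: plate cells (96-well), add compound at 5 concentrations, incubate 48 h, interpolate endpoints linearly. TGI marks complete inhibition of growth.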 Where a SMILES comes first, the peptide text is derived from it. The star is where a group is joined. OBn = c1ccc(CO*)cc1 Some results are limits rather than exact numbers.

Test systems include MDA-N; NCI/ADR-RES ovarian; LOX IMVI melanoma; T-47D breast; UACC-257 melanoma; HCT-116 colon; SK-OV-3 ovarian; SK-MEL-5 melanoma; ACHN renal; MALME-3M melanoma; MCF7 breast; SF-268 CNS; HL-60(TB) leukemia; OVCAR-8 ovarian; SW-620 colon; PC-3 prostate; MDA-MB-231 breast; SK-MEL-28 melanoma; UO-31 renal.
Common to all, as to assay: NCI-60 cell line screen, 48 h

In the case of `CC(C)(CCCCC(C)(C)NCC1COc2ccccc2O1)NCC1COc2ccccc2O1` (configuration not stated), the TGI in the experiment on MDA-N is 5.66 µM; in the experiment on NCI/ADR-RES ovarian, > 10 µM; in the experiment with LOX IMVI melanoma, > 10 µM; in the experiment with T-47D breast, > 10 µM; with UACC-257 melanoma it was 4.1 µM; in the experiment on HCT-116 colon, > 10 µM. Besides, the TGI was > 10 µM in the experiment on SK-OV-3 ovarian; 2.95 µM with SK-MEL-5 melanoma; > 10 µM in the experiment on ACHN renal; 4.65 µM in the experiment on MALME-3M melanoma; > 10 µM in the experiment on MCF7 breast; > 10 µM with SF-268 CNS. Besides, the TGI in the experiment with HL-60(TB) leukemia was > 10 µM; with OVCAR-8 ovarian it was > 10 µM; in the experiment with SW-620 colon, > 10 µM; in the experiment with PC-3 prostate it was > 10 µM; in the experiment on MDA-MB-231 breast, > 10 µM; with SK-MEL-28 melanoma it was 3.66 µM.

With `COc1cc(/C=C2\N=C(c3ccccc3)N(/N=C/c3cc4cc(C)ccc4nc3Cl)C2=O)cc(OC)c1OC`, the TGI in the experiment with UO-31 renal is > 100 µM; in the experiment on MDA-N, 48.6 µM; in the experiment with NCI/ADR-RES ovarian it was > 100 µM; in the experiment on LOX IMVI melanoma it was > 100 µM; in the experiment with T-47D breast it was 63.3 µM; in the experiment with UACC-257 melanoma it was > 100 µM. In addition, the TGI in the experiment with HCT-116 colon, with SK-OV-3 ovarian, in the experiment with SK-MEL-5 melanoma, with ACHN renal, in the experiment with MCF7 breast and in the experiment with SF-268 CNS was > 100 µM throughout. In addition, the TGI in the experiment with HL-60(TB) leukemia is 28.2 µM; with OVCAR-8 ovarian, > 100 µM; in the experiment with SW-620 colon it was > 100 µM; with PC-3 prostate it was 54.7 µM; with MDA-MB-231 breast, > 100 µM; with SK-MEL-28 melanoma, > 100 µM.

For `CC1(C)OC(=O)CC12CCN(Cc1ccccc1)CC2`, the TGI with UO-31 renal, in the experiment on MDA-N, in the experiment on NCI/ADR-RES ovarian, with LOX IMVI melanoma, with T-47D breast and with UACC-257 melanoma was > 100 µM each time. Also, the TGI with HCT-116 colon, with SK-OV-3 ovarian, in the experiment on SK-MEL-5 melanoma, in the experiment on ACHN renal, in the experiment with MALME-3M melanoma and in the experiment on MCF7 breast was > 100 µM each time. Moreover, the TGI in the experiment on SF-268 CNS, in the experiment with HL-60(TB) leukemia, in the experiment with OVCAR-8 ovarian, in the experiment on PC-3 prostate, in the experiment with MDA-MB-231 breast and in the experiment on SK-MEL-28 melanoma was > 100 µM each time.

For the compound `CC1=[N+]([O-])C(C)(C)N(O)C1(C)C`, the TGI in the experiment with UO-31 renal, in the experiment with MDA-N, in the experiment on NCI/ADR-RES ovarian, in the experiment on LOX IMVI melanoma, in the experiment on T-47D breast and with HCT-116 colon was > 100 µM each time. The TGI with SK-OV-3 ovarian, in the experiment with SK-MEL-5 melanoma, with ACHN renal, in the experiment with MALME-3M melanoma, in the experiment with MCF7 breast and with SF-268 CNS was > 100 µM in each case. Moreover, the TGI with HL-60(TB) leukemia, with OVCAR-8 ovarian, in the experiment on SW-620 colon, with PC-3 prostate, in the experiment on MDA-MB-231 breast and in the experiment on SK-MEL-28 melanoma was > 100 µM each time.

For `COc1ccccc1CNCc1nc2ccccc2[nH]1`, the TGI with UO-31 renal, in the experiment on MDA-N, in the experiment with NCI/ADR-RES ovarian, with LOX IMVI melanoma, in the experiment with T-47D breast and in the experiment on UACC-257 melanoma was > 100 µM each time. The TGI in the experiment with HCT-116 colon, in the experiment with SK-MEL-5 melanoma, in the experiment on ACHN renal, in the experiment with MCF7 breast, in the experiment on SF-268 CNS and in the experiment with HL-60(TB) leukemia was > 100 µM each time. The TGI with OVCAR-8 ovarian, in the experiment on SW-620 colon, in the experiment on PC-3 prostate, in the experiment with MDA-MB-231 breast and in the experiment with SK-MEL-28 melanoma was > 100 µM throughout.

Consider `CC(CCC(=O)O)[C@H]1CCC2[C@H]3C(CC(=O)[C@@]21C)[C@@]1(C)CCC(O)C[C@H]1C[C@@H]3O` (some centres not stated), for which the TGI in the experiment with UO-31 renal, in the experiment on MDA-N, in the experiment on NCI/ADR-RES ovarian, with LOX IMVI melanoma, in the experiment on T-47D breast and with UACC-257 melanoma was > 100 µM in each case. In addition, the TGI with HCT-116 colon, with ACHN renal, in the experiment with MALME-3M melanoma, with MCF7 breast, in the experiment on SF-268 CNS and with HL-60(TB) leukemia was > 100 µM in each case. Besides, the TGI in the experiment with OVCAR-8 ovarian, with SW-620 colon, with PC-3 prostate, in the experiment on MDA-MB-231 breast and in the experiment on SK-MEL-28 melanoma was > 100 µM each time.

For `NC(CCC(=O)OCc1ccccc1)C(=O)NC(CCC(=O)OCc1ccccc1)C(=O)O` (configuration not stated) (H-Glu(OBn)-Glu(OBn)-OH; configuration not given here), the TGI with UO-31 renal, in the experiment with MDA-N, with NCI/ADR-RES ovarian, with LOX IMVI melanoma, in the experiment with T-47D breast and in the experiment on HCT-116 colon was > 100 µM throughout. The TGI with SK-OV-3 ovarian, with SK-MEL-5 melanoma, with ACHN renal, in the experiment on MALME-3M melanoma, in the experiment with MCF7 breast and in the experiment with SF-268 CNS was > 100 µM throughout. The TGI in the experiment with HL-60(TB) leukemia, in the experiment with OVCAR-8 ovarian, in the experiment on SW-620 colon, with PC-3 prostate, in the experiment with MDA-MB-231 breast and with SK-MEL-28 melanoma was > 100 µM each time.

With `COc1ccc(NC(C)=O)cc1N1C(=O)/C(=C\c2cc(OC)c(OC)c(OC)c2)S(=O)(=O)C1c1ccccc1` (configuration not stated), the TGI in the experiment with UO-31 renal, in the experiment on MDA-N, in the experiment with NCI/ADR-RES ovarian, in the experiment on LOX IMVI melanoma, with T-47D breast and with UACC-257 melanoma was > 100 µM each time. Moreover, the TGI in the experiment on HCT-116 colon, in the experiment with SK-OV-3 ovarian, in the experiment with SK-MEL-5 melanoma, with ACHN renal, in the experiment on MALME-3M melanoma and in the experiment on MCF7 breast was > 100 µM in each case. In addition, the TGI with HL-60(TB) leukemia was 43 µM; in the experiment on OVCAR-8 ovarian, > 100 µM; in the experiment on SW-620 colon, > 100 µM; in the experiment with PC-3 prostate, > 100 µM; in the experiment with MDA-MB-231 breast it was > 100 µM; with SK-MEL-28 melanoma, > 100 µM.
